{"source": "paper PMC4992173", "about": "“Divergent synthesis and identification of the cellular targets of deoxyelephantopins” (Nature Communications, 2016)", "key": {"[1]": {"target": "T1, Glyoxylate reductase/hydroxypyruvate reductase (GRHPR) (Homo sapiens, UniProt Q9UBQ7)", "T1 construct": "endogenous in cells; host or cells: MCF7", "T1 sequence (Q9UBQ7 whole entry)": "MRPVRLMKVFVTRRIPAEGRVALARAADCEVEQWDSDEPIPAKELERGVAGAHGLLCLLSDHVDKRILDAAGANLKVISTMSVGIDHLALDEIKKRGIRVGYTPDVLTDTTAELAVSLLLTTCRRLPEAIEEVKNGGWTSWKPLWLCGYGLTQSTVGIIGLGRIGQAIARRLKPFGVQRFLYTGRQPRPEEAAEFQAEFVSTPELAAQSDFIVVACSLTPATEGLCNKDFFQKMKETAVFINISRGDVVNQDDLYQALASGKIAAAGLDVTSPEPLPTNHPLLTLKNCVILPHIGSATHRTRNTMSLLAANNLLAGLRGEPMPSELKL", "experiment": "SILAC competitive profiling with probe 24c in MCF7 lysates: GRHPR", "assay_type": "binding", "settings": "protein GRHPR, 1 h, then 10 µM 24c", "excerpt": "In our efforts to determine the direct molecular targets of deoxyelephantopin we first performed a gel-based competitive in situ proteomic profiling assay[41] […] While the greater conformational flexibility of probe 24c could potentially lead to more promiscuous target engagement relatively to deoxyelephantopin, it was favoured based on the fact that an alkyne moiety appended to the rigid scaffold of deoxyelephantopin may hinder some of its interactions. MCF7 cells were pretreated with various concentrations of deoxyelephantopin for 4 h, harvested, lysed and the lysates were treated with the fluorogenic probe 24c-Cy3 (10 μM; Supplementary Fig. 10). […] Furthermore, cells were pretreated with 20 μM concentration of deoxyelephantopin or 24c and the proteomic profiles were compared (Fig. 6b, Supplementary Fig. 11). Multiple bands were detected that were equally competed by both DEP and 24c, thus again confirming that 24c can be used as an acceptable clickable analogue of deoxyelephantopin in pulldown assays. Having established the optimal labelling conditions by SDS–PAGE, we next carried out a mass spectrometry-based competitive profiling assay[42] coupled with the method of stable isotope labelling of amino acids in culture (SILAC)[43]. […]\nvisualization were performed as described above. Images were quantified with ImageJ and kinetics values were calculated using GraphPad Prism (V6.03). […]"}, "[2]": {"test_system": "tumour growth and metastasis", "parameters": "method as in PMID 20105176", "settings": "murine orthotopic breast cancer model, compared with paclitaxel; cited from earlier work"}}, "data": [{"smiles": "C=C(C)C(=O)O[C@H]1CC2=C[C@@H](C/C(C)=C/[C@H]3OC(=O)C(=C)[C@H]13)OC2=O", "note": "[deoxyelephantopin]", "values": [{"measurement": "SILAC ratio 20 µM Deoxyelephantopin/DMSO with 24c", "setting": "[1]", "value": 0.23}, {"measurement": "suppression of tumour growth and metastasis", "setting": "[2]", "value": "more effective than paclitaxel"}]}]}
